Reference: PubChem BioAssay (NCI)
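GI50 = concentration required for 50% inhibition of growth. At the TGI there is no net growth.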

What was measured:
Experiment in all cases: NCI anticancer screen, dose series, 384-well format
OVCAR-8 ovarian = tested on: OVCAR-8 ovarian
NCI-H226 lung = tested on: NCI-H226 lung
A498 renal = tested on: A498 renal
HOP-62 NSCLC = tested on: HOP-62 NSCLC
MDA-MB-231 breast = tested on: MDA-MB-231 breast
SR leukemia = tested on: SR leukemia
SN12C renal = tested on: SN12C renal
PC-3 prostate = tested on: PC-3 prostate
TK-10 renal = tested on: TK-10 renal
IGROV1 ovarian = tested on: IGROV1 ovarian
COLO 205 colon = tested on: COLO 205 colon
SF-539 CNS = tested on: SF-539 CNS
NCI-H322M lung = tested on: NCI-H322M lung
OVCAR-5 ovarian = tested on: OVCAR-5 ovarian
OVCAR-3 ovarian = tested on: OVCAR-3 ovarian
786-0 renal = tested on: 786-0 renal
OVCAR-4 ovarian = tested on: OVCAR-4 ovarian
MCF7 breast = tested on: MCF7 breast
BT-549 breast = tested on: BT-549 breast
SK-MEL-5 melanoma = tested on: SK-MEL-5 melanoma
A549 NSCLC = tested on: A549 NSCLC
SF-295 CNS = tested on: SF-295 CNS
SF-268 CNS = tested on: SF-268 CNS
SNB-19 CNS = tested on: SNB-19 CNS
HS 578T breast = tested on: HS 578T breast
NCI/ADR-RES ovarian = tested on: NCI/ADR-RES ovarian
MDA-MB-468 breast = tested on: MDA-MB-468 breast
SK-MEL-28 melanoma = tested on: SK-MEL-28 melanoma
KM12 colon = tested on: KM12 colon
EKVX NSCLC = tested on: EKVX NSCLC
T-47D breast = tested on: T-47D breast
RXF 393 renal = tested on: RXF 393 renal
SK-OV-3 ovarian = tested on: SK-OV-3 ovarian
MOLT-4 leukemia = tested on: MOLT-4 leukemia
CCRF-CEM leukemia = tested on: CCRF-CEM leukemia
MALME-3M melanoma = tested on: MALME-3M melanoma
NCI-H460 NSCLC = tested on: NCI-H460 NSCLC
RPMI-8226 leukemia = tested on: RPMI-8226 leukemia
UACC-62 melanoma = tested on: UACC-62 melanoma
HOP-92 NSCLC = tested on: HOP-92 NSCLC
CAKI-1 renal = tested on: CAKI-1 renal
LOX IMVI melanoma = tested on: LOX IMVI melanoma
UO-31 renal = tested on: UO-31 renal
SW-620 colon = tested on: SW-620 colon
UACC-257 melanoma = tested on: UACC-257 melanoma
HCC-2998 colon = tested on: HCC-2998 colon
ACHN renal = tested on: ACHN renal
DU-145 prostate = tested on: DU-145 prostate
HCT-15 colon = tested on: HCT-15 colon
K-562 leukemia = tested on: K-562 leukemia
NCI-H522 lung = tested on: NCI-H522 lung
NCI-H23 lung = tested on: NCI-H23 lung
HT29 colon = tested on: HT29 colon
HL-60(TB) leukemia = tested on: HL-60(TB) leukemia
MDA-MB-435 melanoma = tested on: MDA-MB-435 melanoma
SNB-75 CNS = tested on: SNB-75 CNS
M14 melanoma = tested on: M14 melanoma

Question: Which results are given for `C[C@@H](CO)NC(=O)c1cc(-c2ccc(Cl)cc2)nn(-c2cnn(C)c2)c1=O`?
Answer: GI50 (OVCAR-8 ovarian): 23.7 µM; TGI (OVCAR-8 ovarian): 95.9 µM; GI50 (NCI-H226 lung): 16.8 µM; TGI (NCI-H226 lung): 35 µM; GI50 (A498 renal): 14.4 µM; TGI (A498 renal): 28.7 µM; GI50 (HOP-62 NSCLC): 17 µM; TGI (HOP-62 NSCLC): 40 µM; GI50 (MDA-MB-231 breast): 30 µM; TGI (MDA-MB-231 breast): > 100 µM; GI50 (SR leukemia): 10.7 µM; TGI (SR leukemia): 22.7 µM; GI50 (SN12C renal): 24.3 µM; TGI (SN12C renal): 78.6 µM; GI50 (PC-3 prostate): 24.4 µM; TGI (PC-3 prostate): 62.7 µM; GI50 (TK-10 renal): 16.7 µM; TGI (TK-10 renal): 63.3 µM; GI50 (IGROV1 ovarian): 18.3 µM; TGI (IGROV1 ovarian): 42.4 µM; GI50 (COLO 205 colon): 23.7 µM; TGI (COLO 205 colon): 87.2 µM; GI50 (SF-539 CNS): 19.4 µM; TGI (SF-539 CNS): 51.7 µM; GI50 (NCI-H322M lung): 23.5 µM; TGI (NCI-H322M lung): 64 µM; GI50 (OVCAR-5 ovarian): 32.2 µM; TGI (OVCAR-5 ovarian): > 100 µM; GI50 (OVCAR-3 ovarian): 22.6 µM; TGI (OVCAR-3 ovarian): 50.7 µM; GI50 ([…]-0 renal): 17.1 µM; TGI (786-0 renal): 61.3 µM; GI50 (OVCAR-4 ovarian): 25.5 µM; TGI (OVCAR-4 ovarian): 69.6 µM; GI50 (MCF7 breast): 15.8 µM; TGI (MCF7 breast): 29.4 µM; GI50 (BT-549 breast): 16.1 µM; TGI (BT-549 breast): 33.8 µM; GI50 (SK-MEL-5 melanoma): 12.6 µM; TGI (SK-MEL-5 melanoma): 25.3 µM; GI50 (A549 NSCLC): 17.7 µM; TGI (A549 NSCLC): 37.5 µM; GI50 (SF-295 CNS): 18.5 µM; TGI (SF-295 CNS): 41.2 µM; GI50 (SF-268 CNS): 22.6 µM; TGI (SF-268 CNS): 70.7 µM; GI50 (SNB-19 CNS): 27.8 µM; TGI (SNB-19 CNS): 88.5 µM; GI50 (HS 578T breast): 17.2 µM; TGI (HS 578T breast): 36.9 µM; GI50 (NCI/ADR-RES ovarian): 19.3 µM; TGI (NCI/ADR-RES ovarian): 44.4 µM; GI50 (MDA-MB-468 breast): 16.7 µM; TGI (MDA-MB-468 breast): 32 µM; GI50 (SK-MEL-28 melanoma): 21.9 µM; TGI (SK-MEL-28 melanoma): 49.7 µM; GI50 (KM12 colon): 35.2 µM; TGI (KM12 colon): > 100 µM; GI50 (EKVX NSCLC): 27.3 µM; TGI (EKVX NSCLC): 77.9 µM; GI50 (T-47D breast): 26.9 µM; TGI (T-47D breast): 67.9 µM; GI50 (RXF 393 renal): 15.2 µM; TGI (RXF 393 renal): 53.4 µM; GI50 (SK-OV-3 ovarian): 27.3 µM; TGI (SK-OV-3 ovarian): 72.7 µM; GI50 (MOLT-4 leukemia): 1.87 µM; TGI (MOLT-4 leukemia): 3.63 µM; GI50 (CCRF-CEM leukemia): 13.4 µM; TGI (CCRF-CEM leukemia): 29.7 µM; GI50 (MALME-3M melanoma): 13.4 µM; TGI (MALME-3M melanoma): 34.1 µM; GI50 (NCI-H460 NSCLC): 13.8 µM; TGI (NCI-H460 NSCLC): 33.4 µM; GI50 (RPMI-8226 leukemia): 13.8 µM; TGI (RPMI-8226 leukemia): 27 µM; GI50 (UACC-62 melanoma): 11.5 µM; TGI (UACC-62 melanoma): 23.7 µM; GI50 (HOP-92 NSCLC): 10.2 µM; TGI (HOP-92 NSCLC): 43.7 µM; GI50 (CAKI-1 renal): 17.7 µM; TGI (CAKI-1 renal): 49.2 µM; GI50 (LOX IMVI melanoma): 17.1 µM; TGI (LOX IMVI melanoma): 30.9 µM; GI50 (UO-31 renal): 27.1 µM; TGI (UO-31 renal): > 100 µM; GI50 (SW-620 colon): 38.8 µM; TGI (SW-620 colon): > 100 µM; GI50 (UACC-257 melanoma): 24.9 µM; TGI (UACC-257 melanoma): 40.1 µM; GI50 (HCC-2998 colon): 23.5 µM; TGI (HCC-2998 colon): 53.4 µM; GI50 (ACHN renal): 15.5 µM; TGI (ACHN renal): 35.4 µM; GI50 (DU-145 prostate): 16.9 µM; TGI (DU-145 prostate): 36 µM; GI50 (HCT-15 colon): 27.1 µM; TGI (HCT-15 colon): > 100 µM; GI50 (K-562 leukemia): 18.5 µM; TGI (K-562 leukemia): 34.3 µM; GI50 (NCI-H522 lung): 16.9 µM; TGI (NCI-H522 lung): 31.2 µM; GI50 (NCI-H23 lung): 24.8 µM; TGI (NCI-H23 lung): 60.7 µM; GI50 (HT29 colon): 25.9 µM; TGI (HT29 colon): > 100 µM; GI50 (HL-60(TB) leukemia): 16.5 µM; TGI (HL-60(TB) leukemia): 30.1 µM; GI50 (MDA-MB-435 melanoma): 27.7 µM; TGI (MDA-MB-435 melanoma): 80.1 µM; GI50 (SNB-75 CNS): 25.8 µM; TGI (SNB-75 CNS): 93.1 µM; GI50 (M14 melanoma): 27.1 µM; TGI (M14 melanoma): 60.5 µM
